According to ChEMBL document CHEMBL1201862, “PubChem BioAssay data set” (2004):
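48-hour exposure; five concentrations; linearly interpolated endpoints. Abbreviation: GI50, concentration required for 50% inhibition of growth.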 Active and inactive are the calls of the source. Cut-off read from the data, not from the text of the source: active = GI50 up to about 1.1 µM and inactive = higher.

Legend:
Test in all cases: NCI-60 cell line screen, 48 h
[1] = tested on: MDA-N
[2] = tested on: RXF 393
[3] = tested on: NCI-H522
[4] = tested on: LOX IMVI
[5] = tested on: NCI-H23
[6] = tested on: SK-OV-3
[7] = tested on: SR
[8] = tested on: RPMI-8226
[9] = tested on: HOP-62
[10] = tested on: A498
[11] = tested on: SNB-75
[12] = tested on: T47D
[13] = tested on: HCT-15
[14] = tested on: SN12C
[15] = tested on: COLO 205
[16] = tested on: IGROV-1
[17] = tested on: TK-10
[18] = tested on: NCI-H460
[19] = tested on: UO-31
[20] = tested on: MCF7

`C[N+]1(C)CC=C(N2CCOCC2)CC1` was tested, and the GI50 [1] was > 10 µM (inactive), the GI50 [2] was > 10 µM (inactive) and the GI50 [3] was > 10 µM (inactive). For the same compound, the GI50 [4] was > 10 µM (inactive), the GI50 [5] was > 10 µM (inactive) and the GI50 [6] was > 10 µM (inactive). For the same compound, the GI50 [7] was > 10 µM (inactive), the GI50 [8] was > 10 µM (inactive) and the GI50 [9] was > 10 µM (inactive). For the same compound, the GI50 [10] was > 10 µM (inactive), the GI50 [11] was > 10 µM (inactive) and the GI50 [12] was > 10 µM (inactive). For the same compound, the GI50 [13] was > 10 µM, the GI50 [14] was > 10 µM (inactive) and the GI50 [15] was > 10 µM (inactive). For the same compound, the GI50 [16] was > 10 µM (inactive), the GI50 [17] was > 10 µM (inactive) and the GI50 [18] was > 10 µM (inactive). For the same compound, the GI50 [19] was > 10 µM (inactive) and the GI50 [20] was > 10 µM (inactive).
For `OCC1OC(c2scc3c(=S)[nH]cnc23)C(O)C1O` (stereo not drawn), the GI50 [1] was 15 µM (inactive), the GI50 [2] was 11.9 µM (inactive) and the GI50 [3] was 15.8 µM (inactive). The GI50 [4] was 2.86 µM (inactive), the GI50 [5] was 21 µM (inactive) and the GI50 [6] was 2.54 µM (inactive). The GI50 [7] was 29.1 µM (inactive), the GI50 [8] was 9.31 µM (inactive) and the GI50 [9] was 10.7 µM (inactive). For the same compound, the GI50 [10] was 6.84 µM (inactive), the GI50 [11] was 2.32 µM (inactive) and the GI50 [12] was 0.82 µM (active). For the same compound, the GI50 [13] was 4.1 µM, the GI50 [14] was 6.15 µM (inactive) and the GI50 [15] was 11.2 µM (inactive). For the same compound, the GI50 [16] was 9.62 µM (inactive), the GI50 [17] was 5.45 µM (inactive) and the GI50 [18] was 8.22 µM (inactive). For the same compound, the GI50 [19] was 6.08 µM (inactive) and the GI50 [20] was 2.8 µM (inactive).
With `CCCCCCCCCCC[N+]1(Cc2ccccc2)CC2CCN(Cc3ccccc3)CC2C1` (stereo not drawn) the GI50 [1] was 0.233 µM (active), the GI50 [2] was 0.587 µM (active) and the GI50 [3] was 0.106 µM (active). For the same compound, the GI50 [4] was 0.382 µM (active), the GI50 [5] was 0.181 µM (active) and the GI50 [6] was 1.75 µM (inactive). The GI50 [7] was 0.0546 µM (active), the GI50 [8] was 0.101 µM (active) and the GI50 [9] was 0.818 µM (active). For the same compound, the GI50 [10] was 1.5 µM (inactive), the GI50 [11] was 1.15 µM (inactive) and the GI50 [12] was 0.166 µM (active). For the same compound, the GI50 [13] was 1.52 µM, the GI50 [14] was 0.327 µM (active) and the GI50 [15] was 1.01 µM (active). The GI50 [16] was 0.429 µM (active), the GI50 [17] was 1.29 µM (inactive) and the GI50 [18] was 1.29 µM (inactive). For the same compound, the GI50 [19] was 1.3 µM (inactive) and the GI50 [20] was 0.447 µM (active).
For `CC(CO)CCNc1ncnc2c1ncn2CCC(=O)OC(C)(C)C` (stereo not drawn), the GI50 [1] was > 100 µM (inactive), the GI50 [2] was > 100 µM (inactive) and the GI50 [3] was > 100 µM (inactive). For the same compound, the GI50 [4] was > 100 µM (inactive), the GI50 [5] was > 100 µM (inactive) and the GI50 [6] was > 100 µM (inactive). For the same compound, the GI50 [7] was > 100 µM (inactive), the GI50 [8] was > 100 µM (inactive) and the GI50 [9] was > 100 µM (inactive). The GI50 [10] was > 100 µM (inactive), the GI50 [11] was > 100 µM (inactive) and the GI50 [12] was > 100 µM (inactive). For the same compound, the GI50 [14] was > 100 µM (inactive), the GI50 [15] was > 100 µM (inactive) and the GI50 [16] was > 100 µM (inactive). For the same compound, the GI50 [17] was > 100 µM (inactive), the GI50 [18] was > 100 µM (inactive) and the GI50 [19] was > 100 µM (inactive). For the same compound, the GI50 [20] was > 100 µM (inactive).
For `CCOC(=O)/C=C(/C(=O)OCC)n1cc(C)c(=O)n(Cc2cnnn2COCCOC(C)=O)c1=O`, the GI50 [1] was 23.1 µM (inactive), the GI50 [2] was 2.64 µM (inactive) and the GI50 [3] was 1.58 µM (inactive). For the same compound, the GI50 [4] was 14.8 µM (inactive), the GI50 [5] was 15.8 µM (inactive) and the GI50 [6] was > 100 µM (inactive). For the same compound, the GI50 [7] was 4.91 µM (inactive), the GI50 [8] was 8.59 µM (inactive) and the GI50 [9] was 49.7 µM (inactive). The GI50 [10] was 29.2 µM (inactive), the GI50 [11] was 24.9 µM (inactive) and the GI50 [12] was 6.93 µM (inactive). For the same compound, the GI50 [13] was 7.45 µM, the GI50 [14] was 22.1 µM (inactive) and the GI50 [15] was 3.79 µM (inactive). For the same compound, the GI50 [16] was 17 µM (inactive), the GI50 [17] was 5.24 µM (inactive) and the GI50 [18] was 24 µM (inactive). The GI50 [19] was 16.7 µM (inactive) and the GI50 [20] was 10.5 µM (inactive).
With `Cc1ccc2nc3c(C)c(Cl)c(=O)cc-3sc2c1` the GI50 [1] was 16.9 µM (inactive), the GI50 [2] was 22.9 µM (inactive) and the GI50 [3] was 11.1 µM (inactive). The GI50 [4] was 13.9 µM (inactive), the GI50 [5] was 13.2 µM (inactive) and the GI50 [6] was > 100 µM (inactive). For the same compound, the GI50 [7] was 5.86 µM (inactive), the GI50 [8] was 3.85 µM (inactive) and the GI50 [9] was 27.5 µM (inactive). For the same compound, the GI50 [10] was 40.2 µM (inactive), the GI50 [11] was 14.5 µM (inactive) and the GI50 [12] was 58.1 µM (inactive). The GI50 [13] was 10.6 µM, the GI50 [14] was 26.6 µM (inactive) and the GI50 [15] was 29.9 µM (inactive). For the same compound, the GI50 [16] was 37.9 µM (inactive), the GI50 [17] was 56.8 µM (inactive) and the GI50 [18] was 23.1 µM (inactive). The GI50 [19] was 10.2 µM (inactive) and the GI50 [20] was 17.6 µM (inactive).
With `CCOC(=O)/C=C/[C@H](O)[C@@H](O)/C=C/C(=O)OCC` the GI50 [1] was 29.6 µM (inactive), the GI50 [2] was 20.2 µM (inactive) and the GI50 [3] was 20.7 µM (inactive). The GI50 [4] was 23.9 µM (inactive), the GI50 [5] was 33.8 µM (inactive) and the GI50 [6] was 62.2 µM (inactive). For the same compound, the GI50 [7] was 8.04 µM (inactive), the GI50 [8] was 21.2 µM (inactive) and the GI50 [9] was 21.3 µM (inactive). For the same compound, the GI50 [10] was 42.7 µM (inactive), the GI50 [11] was 62.7 µM (inactive) and the GI50 [12] was 34.1 µM (inactive). The GI50 [13] was 23 µM, the GI50 [14] was 26.6 µM (inactive) and the GI50 [15] was 32.4 µM (inactive). The GI50 [16] was 30.7 µM (inactive), the GI50 [17] was 55.8 µM (inactive) and the GI50 [18] was 19.1 µM (inactive). The GI50 [19] was 61.8 µM (inactive) and the GI50 [20] was 19.6 µM (inactive).
For `CC(C)=Cc1cc2c(cc1O)CCC1C2CC[C@@]2(C)C1CC[C@@H]2O` (stereo partly drawn), the GI50 [1] was 2.44 µM (inactive), the GI50 [2] was 6.01 µM (inactive) and the GI50 [3] was 5.35 µM (inactive). For the same compound, the GI50 [4] was 3.97 µM (inactive), the GI50 [5] was 15.8 µM (inactive) and the GI50 [6] was 14.9 µM (inactive). For the same compound, the GI50 [7] was 3.18 µM (inactive), the GI50 [8] was 5.14 µM (inactive) and the GI50 [10] was 16.4 µM (inactive). For the same compound, the GI50 [11] was 3.56 µM (inactive), the GI50 [12] was 12.6 µM (inactive) and the GI50 [13] was 8.89 µM. The GI50 [14] was 14.7 µM (inactive), the GI50 [15] was 18.4 µM (inactive) and the GI50 [16] was 12.8 µM (inactive). For the same compound, the GI50 [17] was 3.16 µM (inactive), the GI50 [18] was 12 µM (inactive) and the GI50 [19] was 13.3 µM (inactive). For the same compound, the GI50 [20] was 14.4 µM (inactive).
